Experimental data published in US20140356433A1, “Pharmaceutical Carrier and Drug Structure Using the Same” (priority 2013, published 2014).

Assay: Retention in stomach, 123I label, single-photon emission computed tomography
Type: in vivo
Conditions: mice, 24 hours after feeding, 123I labeled, SPECT (FIG. 3)
Description: Then, in order to examine the retention time of the present drug structure in stomach, sample B of embodiment 1 was labeled with radioactive Iodine 123 (^123I) and fed to experimental mice. Single-photon emission computed tomography was respectively conducted at 1st, 4th, and 24th hour after feeding to observe the location of the present drug structure inside the mice's bodies.

CC1(C)S[C@@H]2[C@H](NC(=O)[C@H](N)c3ccc(O)cc3)C(=O)N2[C@H]1C(=O)O [amoxicillin]
presence in stomach after feeding: had no longer existed in the stomach after 24 hours
